# Assay results as given in patent US20080269202A1, “Novel 2,3-benzodiazepine derivatives and their use as antipsychotic agents” (Teva Pharmaceutical Industries Ltd., priority 2007, published 2008).
# Columns and labels:
# [1] = system: DOPA accumulation in eminentia mediana; assay: DOPA accumulation in eminentia mediana after NSD-1015; format: in vivo, Sprague-Dawley rats
# Experimental: Acute administration of atypical antipsychotics results in enhanced accumulation of dihydroxyphenylalanine (DOPA) in the […] after the inhibition of DOPA decarboxylase. In contrast, DOPA accumulation is not altered by the typical antipsychotics (Andersson, G, Albinsson, A, Pettersson, G, Arzneimittelforschung. 1990, 40, 237; Gudelsky, G. A., Meltzer, H. Y. Neuropsychopharmacology, 1989, 2, 45). The effect of the compound of Example 121 on DOPA-accumulation was measured by analyzing the levels of DOPA in […]. […] (EM), were dissected out from the brains on ice-cold plates and kept at -70° C. until they were assayed for DOPA by HPL-EC. Statistical analysis was carried out using one-way ANOVA followed by Duncan test.
# PCP-induced locomotion = assay: PCP induced locomotor activity test (open field); format: in vivo, mice; conditions: all doses (1, 3, 6, 10, 15 mg/kg) by gavage, PCP 5 mg/kg, vs vehicle
# Experimental: The effects of compounds 121 and 183, administered orally, were also evaluated in the PCP induced locomotor activity test. Compound 121 was designated as “Compound A” and Compound 183 was designated as “Compound B” for purposes of this study. In general, the study aimed to test Compounds A and B for potential antipsychotic activity in PCP treated mice.
# Compounds A & B were dissolved in 3% Tween: Compound A: 1, 3, 6, 10, and 15 mg/kg; Compound B: 3, 7, 14, 28, and 40 mg/kg; Compounds A+B were administered by gavage.
# PCP (5 mg/kg) was dissolved in sterile injectable water.
# The open field (“OF”) test assessed both anxiety and locomotor behavior. The open field chambers are Plexiglas square chambers (27.3×27.3×20.3 cm; Med Associates Inc., St Albans, Vt.) surrounded by infrared photobeams (16×16×16) to measure horizontal and vertical activity. The analysis was configured to divide the open field into a center and periphery zone. Distance traveled was measured from horizontal beam breaks as the mouse moved whereas rearing activity was measured from vertical beam breaks.
# Mice were brought to the activity experimental room for at least 1 hr acclimation to the experimental room conditions prior to testing. […]
# Data was analyzed to show baseline activity (activity during the 30 min prior to PCP injection) and PCP-induced activity (activity during the 60 min after PCP injection).
structure (smiles),measurement,setting,value
CNC(=O)N1N=C(c2ccc(N)cc2)c2cc(OC)c(OC)cc2C[C@H]1C [Example 121],DOPA levels (pg/tissue block),"[1]; rat eminentia mediana, 10 mg/kg ip, mean ± SEM",484 ± 34 pg/tissue block
same,DOPA levels (pg/tissue block),"[1]; rat eminentia mediana, 20 mg/kg ip, mean ± SEM",652 ± 69 pg/tissue block
same,DOPA levels (pmol/mg prot),"[1]; rat eminentia mediana, 40 mg/kg ip, mean ± SEM",94.0 ± 11.4 pmol/mg prot
same,effect on levels of DOPA in the EM of rats,"[1]; result in words, vs saline",significantly increased
same,effect on PCP induced locomotion,PCP-induced locomotion,significantly decreased
